Measurements taken from US20260216198A1, “GPR35 MODULATORS” (ThirtyFiveBio Limited, priority 2023, published 2026).

Target: T1, GPR35 (Homo sapiens, UniProt Q9HC97)
T1 construct: expressed in transfected cells; host or cells: CHO-K1 cells co-expressing mitochondrial aequorin and Gα16
Assay: cellular GPR35 phospho-ERK HTRF assay (inhibition of lodoxamide-induced phospho-ERK signal)
Type: cell-based
Conditions: GPR35-CHO-K1-mt aequorin-Gα16 cell line; agonist lodoxamide at EC80; read-out: Activity Group (IC50, inhibition of GPR35 agonist-induced phospho-ERK signal)
Procedure, shortened: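 GPR35-CHO-K1-mt aequorin-Gα16 cells were stimulated with lodoxamide at its EC80. After lysis, phospho-ERK1/2 (Thr202/Tyr204) was read by HTRF sandwich with Eu-cryptate/d2 antibodies at 665 nm. IC50 is the modulator concentration giving 50% inhibition of the window between agonist-plus-vehicle and no-agonist controls.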

T1 sequence (Q9HC97 whole entry): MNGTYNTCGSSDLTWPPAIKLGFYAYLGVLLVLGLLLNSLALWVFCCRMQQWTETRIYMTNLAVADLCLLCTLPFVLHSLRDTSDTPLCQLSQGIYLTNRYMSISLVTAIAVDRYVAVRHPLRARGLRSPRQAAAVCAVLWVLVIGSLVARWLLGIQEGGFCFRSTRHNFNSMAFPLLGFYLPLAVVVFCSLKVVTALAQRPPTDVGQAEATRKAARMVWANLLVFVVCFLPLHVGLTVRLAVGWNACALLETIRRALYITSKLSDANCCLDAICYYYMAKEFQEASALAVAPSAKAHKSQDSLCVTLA

Row | Structure (SMILES) | IC50 [nM]
1 | Cc1ncc(-c2cccc(C(=O)Nc3ccc(COCc4ccccc4)cc3)c2F)cc1C(=O)O [Example 86, 5-[3-[[4-(Benzyloxymethyl)phenyl]carbamoyl]-2-fluoro-phenyl]-2-methyl-pyridine-3-carboxylic acid] | 1000 to 10000
2 | Cc1ncc(-c2ccc(F)c(C(=O)Nc3ccc(COCc4ccccc4)cc3)c2F)cc1C(=O)O [Example 87, 5-[3-[[4-(Benzyloxymethyl)phenyl]carbamoyl]-2,4-difluoro-phenyl]-2-methyl-pyridine-3-carboxylic acid] | 1000 to 10000
3 | Cc1ncc(-c2ccc(F)c(C(=O)Nc3ccc(COCC4CC4)c(F)c3)c2)cc1C(=O)O [Example 88, 5-[3-[[4-(Cyclopropylmethoxymethyl)-3-fluoro-phenyl]carbamoyl]-4-fluoro-phenyl]-2-methyl-pyridine-3-carboxylic acid] | < 1000
4 | Cc1ncc(-c2ccc(F)c(C(=O)Nc3ccc(OCC4CC4)c(F)c3)c2)cc1C(=O)O [Example 89, 5-[3-[[4-(Cyclopropylmethoxy)-3-fluoro-phenyl]carbamoyl]-4-fluoro-phenyl]-2-methyl-pyridine-3-carboxylic acid] | < 1000
5 | Cc1ncc(-c2ccc(F)c(C(=O)Nc3ccc(COCc4ccccc4)c(F)c3)c2)cc1C(=O)O [Example 90, 5-[3-[[4-(Benzyloxymethyl)-3-fluoro-phenyl]carbamoyl]-4-fluoro-phenyl]-2-methyl-pyridine-3-carboxylic acid] | < 1000
6 | Cc1ncc(-c2ccc(F)c(C(=O)Nc3ccc(COC4CC4)c(F)c3)c2)cc1C(=O)O [Example 91, 5-[3-[[4-(Cyclopropoxymethyl)-3-fluoro-phenyl]carbamoyl]-4-fluoro-phenyl]-2-methyl-pyridine-3-carboxylic acid] | 1000 to 10000
7 | Cc1ncc(-c2ccc(F)c(C(=O)Nc3ccc(OC(C)C4CC4)c(F)c3)c2)cc1C(=O)O (stereo not shown) [Example 92, 5-[3-[[4-(1-Cyclopropylethoxy)-3-fluoro-phenyl]carbamoyl]-4-fluoro-phenyl]-2-methyl-pyridine-3-carboxylic acid] | < 1000
8 | Cc1ncc(-c2ccc(F)c(C(=O)Nc3ccc(OC(C)C4CC4)c(C#N)c3)c2)cc1C(=O)O (stereo not shown) [Example 93, 5-[3-[[3-Cyano-4-(1-cyclopropylethoxy)phenyl]carbamoyl]-4-fluoro-phenyl]-2-methyl-pyridine-3-carboxylic acid] | 1000 to 10000
9 | CSc1ncc(C(=O)Nc2ccc(OCCc3ccccc3)cc2)cc1-c1cnc(C)c(C(=O)O)c1 [Example 94, 2-Methyl-5-[2-methylsulfanyl-5-[[4-(2-phenylethoxy)phenyl]carbamoyl]-3-pyridyl]pyridine-3-carboxylic acid] | 1000 to 10000
10 | COCCOc1ncc(C(=O)Nc2ccc(OCCc3ccccc3)cc2)cc1-c1cnc(C)c(C(=O)O)c1 [Example 95, 5-[2-(2-Methoxyethoxy)-5-[[4-(2-phenylethoxy)phenyl]carbamoyl]-3-pyridyl]-2-methyl-pyridine-3-carboxylic acid] | 1000 to 10000
11 | Cc1ncc(-c2cccc(C(=O)Nc3ccc(CS(=O)(=O)c4ccc(Cl)cc4)cc3)c2)cc1C(=O)O [Example 96, 5-[3-[[4-[(4-Chlorophenyl)sulfonylmethyl]phenyl]carbamoyl]phenyl]-2-methyl-pyridine-3-carboxylic acid] | < 1000
12 | Cc1ncc(-c2cccc(C(=O)Nc3ccc(CS(=O)(=O)c4cccc(Cl)c4)cc3)c2)cc1C(=O)O [Example 97, 5-[3-[[4-[(3-Chlorophenyl)sulfonylmethyl]phenyl]carbamoyl]phenyl]-2-methyl-pyridine-3-carboxylic acid] | 1000 to 10000
13 | Cc1ncc(-c2cccc(C(=O)Nc3ccc(CS(=O)(=O)c4ccccc4Cl)cc3)c2)cc1C(=O)O [Example 98, 5-[3-[[4-[(2-Chlorophenyl)sulfonylmethyl]phenyl]carbamoyl]phenyl]-2-methyl-pyridine-3-carboxylic acid] | 1000 to 10000
